What is called AUC is the area under the concentration-time curve, a measure of exposure. Higher therefore signals high exposure. One may read the CLint scaled as a measure of how fast metabolising enzymes remove a compound, apart from limits set by blood flow. Low values mean slow turnover, high ones rapid turnover. As usually defined, the bioavailability is the share of a dose that reaches the circulation, judged against a reference dose that is usually intravenous. Lower therefore signals little systemic uptake. A word on the IC50: it is the concentration that inhibits the measured activity by half.

The nature of data set [1]: Unbound intrinsic clearance in mouse microsomes. Type of data set: ADME, Microsome.
Data set [2] in a line: AUC in mouse at 10 mg/kg, po. Type of data set: ADME, organism-based. The settings on record: in vivo.
Data set [3] is described as follows: Clearance in mouse microsomes. Type of data set: ADME, Microsome.
Data set [4] in a line: Permeability of the compound by PAMPA. Type of data set: ADME. Background: PAMPA measures passive passage across an artificial lipid membrane.
Data set [5] is described as follows: Unbound fraction in human microsomes. Type of data set: ADME, Microsome.
Data set [6] relates to Mus musculus. The data set is described as follows: Plasma clearance in mouse at 1 mg/kg, iv. Type of data set: ADME, organism-based. The settings on record: in vivo.
Data set [7] in a line: Oral bioavailability in mouse. Type of data set: ADME, organism-based. The settings on record: in vivo.
The nature of data set [8]: Protein binding in mouse plasma. Type of data set: ADME, cell-free.
For data set [9], the species on record is Mus musculus. The data set is described as follows: Unbound plasma clearance in mouse. Type of data set: ADME, organism-based. The settings on record: in vivo.
The target in data set [10] is CREB-binding protein/Histone acetyltransferase p300 (Homo sapiens, UniProt Q09472+Q92793). The data set is described as follows: Inhibition of p300/CBP (unknown origin) using biotinylated synthetic Histone H4 Peptide as substrate pretreated for 30 mins followed by substrate addition measured after 1 hr by radiometric scintillation proximity assay. Type of data set: protein assay.

Turning to `CNC(=O)Nc1ccc2c(c1)CC[C@@]21OC(=O)N(CC(=O)N(Cc2ccccc2)[C@@H](C)C2CC2)C1=O`, the CL free in [1] turned out to be 3130 mL/min/kg; in the data set listed under Mus musculus [9], 3100 mL/min/kg. Also, in data set [2], the area under the curve (AUC) came out at 2500 ng·h/mL. This compound gave a CLint scaled in data set [3] of 1780 mL/min/kg. The permeability in data set [4] is reported as 2.35 ×10⁻⁶ cm/s. In data set [5], the Fu was found to be 0.48. In addition, the CL in the data set on Mus musculus [6] stood at 27 mL/min/kg. Moreover, the bioavailability in [7] was 40%. This compound also gave a PPB in data set [8] of 99.1%.
Take `CC(C1CC1)N(Cc1ccccc1)C(=O)CN1C(=O)NC(Cc2c[nH]c3ccccc23)C1=O` (stereo not drawn): in data set [10], the IC50 is 5.1 µM.
Compound `CNC(=O)Nc1ccc2c(c1)CC[C@]21NC(=O)N(CC(=O)N(Cc2ccccc2)[C@@H](C)C2CC2)C1=O` came in with a permeability in data set [4] of 0.47 ×10⁻⁶ cm/s.
For the compound `C[C@@H](C1CC1)N(Cc1ccccc1)C(=O)CN1C(=O)NC(c2ccccc2)C1=O` (stereo partly drawn), the concentration for half-maximal inhibition (IC50) in data set [10] was found to be 7.6 µM.
On the same count and under the same terms, for `Cc1ccccc1C1NC(=O)N(CC(=O)N(Cc2ccccc2)[C@@H](C)C2CC2)C1=O` (stereo partly drawn) the value was 2.7 µM.

The values above are taken from ChEMBL document CHEMBL4138268, “Discovery of Spiro Oxazolidinediones as Selective, Orally Bioavailable Inhibitors of p300/CBP Histone Acetyltransferases” (ACS Med Chem Lett, 2018).
